From PubChem BioAssay (NCI)
Where “and” joins values, the source holds several entries; their conditions need not be identical. Equal entries are not always repeated.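 Where inhibition never reached the appropriate level, the endpoint shown equals the highest concentration tested. Otherwise, values were interpolated linearly from a five-concentration, 48-hour dose response in 96-well plates. At the GI50, growth is halved. Definition used: TGI = concentration required for complete inhibition of growth.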

Assays:
Assay in all cases: NCI-60 cell line screen, 48 h
[1] = system: MDA-MB-468 breast
[2] = system: OVCAR-4 ovarian
[3] = system: HCC-2998 colon
[4] = system: OVCAR-5 ovarian
[5] = system: KM12 colon
[6] = system: K-562 leukemia
[7] = system: MDA-MB-435
[8] = system: NCI/ADR-RES ovarian
[9] = system: CAKI-1 renal
[10] = system: OVCAR-8 ovarian
[11] = system: NCI-H460 lung
[12] = system: HCT-15 colon
[13] = system: SK-MEL-5 melanoma
[14] = system: MCF7 breast
[15] = system: MOLT-4 leukemia
[16] = system: SF-295 CNS
[17] = system: COLO 205 colon
[18] = system: M14 melanoma
[19] = system: ACHN renal
[20] = system: U251 CNS
[21] = system: BT-549 breast
[22] = system: LOX IMVI melanoma
[23] = system: HS 578T breast
[24] = system: CCRF-CEM leukemia
[25] = system: RXF 393 renal
[26] = system: HOP-62 NSCLC
[27] = system: SR leukemia
[28] = system: MALME-3M melanoma
[29] = system: HOP-92 NSCLC
[30] = system: SK-OV-3 ovarian
[31] = system: HL-60(TB) leukemia
[32] = system: OVCAR-3 ovarian
[33] = system: IGROV1 ovarian
[34] = system: 786-0 renal
[35] = system: NCI-H522 lung
[36] = system: A498 renal
[37] = system: HCT-116 colon
[38] = system: UACC-62 melanoma
[39] = system: UACC-257 melanoma
[40] = system: SF-539 CNS
[41] = system: SW-620 colon
[42] = system: HT29 colon
[43] = system: PC-3 prostate
[44] = system: SNB-19 CNS
[45] = system: SN12C renal
[46] = system: TK-10 renal
[47] = system: SK-MEL-28 melanoma
[48] = system: NCI-H226 lung
[49] = system: EKVX NSCLC
[50] = system: NCI-H23 lung
[51] = system: A549 NSCLC
[52] = system: SF-268 CNS
[53] = system: T-47D breast
[54] = system: DU-145 prostate
[55] = system: RPMI-8226 leukemia

Compound: C[C@H](c1ccc(Cl)cc1[N+](=O)[O-])N1C(=O)c2cc(I)ccc2NC(=O)[C@H]1c1ccc(Cl)cc1
- GI50 [1]: 16.6 µM
- TGI [1]: > 100 µM

Compound: COc1ccc(-c2cc3c(N)ncnc3o2)cc1
- GI50 [1]: > 25 µM
- TGI [1]: > 25 µM

Compound: CCC(=O)Oc1ccc(/C=N/NC(N)=S)nc1
- GI50 [1]: 1.97 µM
- TGI [1]: 7.22 µM

Compound: CC1(C)N=C(N)N=C(N)N1c1ccc(CCC(=O)Nc2cccc(S(=O)(=O)F)c2)cc1
- GI50 [1]: 1.31 µM
- TGI [1]: > 100 µM

Compound: CN(C)CCNC(=O)c1ccc(-c2nc3ccc4[nH]ncc4c3c3c2COCC3)cc1
- GI50 [1]: 0.169 µM
- TGI [1]: 0.36 µM

Compound: NC(N)=NC(N)=NCc1ccco1
- GI50 [1]: 158 µM and 36.8 µM
- TGI [1]: 500 µM

Compound: CCCCCCCCCCCCCCCC(N)c1ccccc1 (centres undefined)
- GI50 [1]: 1.58 µM
- TGI [1]: 3.14 µM

Compound: O=C(Nc1nc2ccc([N+](=O)[O-])cc2s1)Nc1ccccc1F
- GI50 [2]: 5.21 µM
- TGI [2]: > 100 µM
- GI50 [3]: 7.58 µM
- TGI [3]: 34.1 µM
- GI50 [4]: 22 µM
- TGI [4]: 80.8 µM
- GI50 [5]: 5.33 µM
- TGI [5]: 52.8 µM
- GI50 [6]: 4.99 µM
- TGI [6]: 25 µM
- GI50 [7]: 5.46 µM
- TGI [7]: > 100 µM
- GI50 [8]: 7.98 µM
- TGI [8]: 32.4 µM
- GI50 [9]: 5.32 µM
- TGI [9]: 73.2 µM
- GI50 [10]: 15.8 µM
- TGI [10]: 50.4 µM
- GI50 [11]: 4.66 µM
- TGI [11]: 26.5 µM
- GI50 [12]: 4.93 µM
- TGI [12]: 33.9 µM
- GI50 [13]: 2.64 µM
- TGI [13]: 7.35 µM
- GI50 [14]: 5.68 µM
- TGI [14]: 35.3 µM
- GI50 [15]: 3.77 µM
- TGI [15]: 15.5 µM
- GI50 [16]: 11.4 µM
- TGI [16]: 32.1 µM
- GI50 [17]: 15.1 µM
- TGI [17]: 30.4 µM
- GI50 [18]: 19.1 µM
- TGI [18]: > 100 µM
- GI50 [19]: 8.13 µM
- TGI [19]: 95.7 µM
- GI50 [20]: 7.41 µM
- TGI [20]: 35.7 µM
- GI50 [21]: 11.9 µM
- TGI [21]: 46.5 µM
- GI50 [22]: 10.7 µM
- TGI [22]: 58.8 µM
- GI50 [23]: 5.89 µM
- TGI [23]: 59 µM
- GI50 [24]: 5.42 µM
- TGI [24]: 47.9 µM
- GI50 [25]: 13.3 µM
- TGI [25]: 47.3 µM
- GI50 [26]: 17.2 µM
- TGI [26]: 56.3 µM
- GI50 [27]: 3.31 µM
- TGI [27]: 17.4 µM
- GI50 [28]: 4.17 µM
- TGI [28]: 30.9 µM
- GI50 [29]: 2.83 µM
- TGI [29]: 8.28 µM
- GI50 [30]: 5.9 µM
- TGI [30]: 46.1 µM
- GI50 [31]: 4.31 µM
- TGI [31]: 22 µM
- GI50 [32]: 3.99 µM
- TGI [32]: 46.6 µM
- GI50 [33]: 4.57 µM
- TGI [33]: > 100 µM
- GI50 [1]: 3.2 µM
- TGI [1]: 19.2 µM
- GI50 [34]: 17.7 µM
- TGI [34]: > 100 µM
- GI50 [35]: 3.49 µM
- TGI [35]: 22.6 µM
- GI50 [36]: 4.88 µM
- TGI [36]: 36.7 µM
- GI50 [37]: 9.97 µM
- TGI [37]: 39.8 µM
- GI50 [38]: 3.77 µM
- TGI [38]: > 100 µM
- GI50 [39]: 6.08 µM
- TGI [39]: 36.9 µM
- GI50 [40]: 8.33 µM
- TGI [40]: 26.9 µM
- GI50 [41]: 12.2 µM
- TGI [41]: > 100 µM
- GI50 [42]: 23.6 µM
- TGI [42]: > 100 µM
- GI50 [43]: 6.83 µM
- TGI [43]: 51 µM
- GI50 [44]: 6.35 µM
- TGI [44]: > 100 µM
- GI50 [45]: 4.65 µM
- TGI [45]: 62.3 µM
- GI50 [46]: 8.78 µM
- TGI [46]: 83 µM
- GI50 [47]: 5.79 µM
- TGI [47]: 83.8 µM
- GI50 [48]: 13.4 µM
- TGI [48]: > 100 µM
- GI50 [49]: 4.37 µM
- TGI [49]: 55.5 µM
- GI50 [50]: 3.6 µM
- TGI [50]: 21.6 µM
- GI50 [51]: 7.4 µM
- TGI [51]: 28.5 µM
- GI50 [52]: 8.41 µM
- TGI [52]: > 100 µM
- GI50 [53]: 3.06 µM
- TGI [53]: 22.7 µM
- GI50 [54]: 7.11 µM
- TGI [54]: > 100 µM
- GI50 [55]: 3.45 µM
- TGI [55]: 16.5 µM
